Reference: article PMC7168327, “Designed Antimicrobial Peptides for Topical Treatment of Antibiotic Resistant Acne Vulgaris” (Antibiotics, 2020)
Values after ≈ are worked out from the molar mass of the structure shown. “Also recorded” adds a separate entry of the source. Bridge positions count the residues as written; N and C are the ends. Peptide text beside a SMILES is read from it.

How the values were obtained:
C. acnes HL043PA2 = assay: Multidrug-resistant C. acnes intradermal murine infection model; assay type: in vivo; settings: topical 25 μL, BALB/c mice; for mean bacterial burden in skin (CFU/g): 7 applications 2–74 h post infection, skin harvested at 96 h, n = 6
Procedure: All animals received care in compliance with the Guide for the Care and Use of Laboratory Animals (8th Edition, National Institutes of Health Publication, 2011). All studies were approved by the Institutional Animal Care and Use Committee. Female BALB/c mice, 5 to 7 weeks, were obtained from Envigo Laboratories Inc (Indianapolis, IN, USA). General anesthesia consisted of an intraperitoneal injection of ketamine 100 mg/kg and xylazine 10 mg/kg (Vedco, Inc., St. Joseph, MO, USA).
Mice were inoculated via intradermal (ID) injection of the antibiotic-resistant C. acnes HL043PA2 (7.0 log10 CFU, 50 μL, BEI Resources, HM-514, [14]). The day prior to infection, each mouse was anesthetized using isoflurane, and an area of approximately 1″ × 1″ of skin on the dorsal area of each mouse was shaved and cleared of hair using the depilatory agent Nair®. Beginning 2 h after infection, mice were anesthetized and RP556, formulated in 2% hydroxypropyl methylcellulose in water, viscosity 3000–5600 cP, or 40 mg/mL clindamycin (4%) was administered topically, at 25 μL twice daily for a total of 7 applications (2, 14, 26, 38, 50, 62 and 74 h post infection). Abscesses were harvested at 96 h post-challenge (or Day 7 for untreated control) and assessed for bacterial CFU per gram of skin tissue.

[1] = test system: bioluminescent human immortalized keratinocytes (HaCaT); assay: Mammalian cytotoxicity, bioluminescent human keratinocytes; assay type: cell-based; settings: bioluminescent HaCaT
Procedure: (§1) Noninvasive and real-time monitoring of mammalian cytotoxicity to assess the potential skin toxicity of the dAMPs was evaluated using bioluminescent human immortalized keratinocytes (HaCaT, AddexBio, San Diego, CA, USA). The bioluminescent variant of HaCaT was constructed by transfection with a luciferase gene (RediFect Red-Fluc-Puromycin, Cat# CL596002). Keratinocytes (1 × 10^4 cells, 100 μL) were plated in 96-well black-walled plates. The candidate dAMPs were 2-fold serially diluted from 1024 µg/mL in growth medium supplemented with 150 µg/mL D-luciferin. Each concentration was performed in triplicate, with the final volume being 200 μL. Imaging was performed at select times (0, 15, and 30 min and 1, 3, 5, and 8 h) after the addition of the dAMP, and compared to concurrently run vehicle-control, using an IVIS Lumina imaging system (Caliper Life Sciences, Inc., Hopkinton, MA, USA). For imaging, the 96-well plate was positioned on the stage (12.5-cm field of view), with an open emission filter, binning of 4, and f-stop 1 and a 1-min exposure time. Data analysis was performed using the Living Image software program (version 4.3, Caliper Life Sciences, Inc.). The dAMP concentrations required to kill 10% and 50% of keratinocytes were determined using GraphPad Prism 7 (GraphPad Software, San Diego, CA, USA).

C. acnes HL072PA1 = assay type: cell-based, Cutibacterium acnes; settings: C. acnes HL072PA1; RCM broth, anaerobic, 1 × 10^6 CFU per mL, two-fold dilutions 0.5–32 μg/mL, 48 h, OD 600 nm; mean of three replicates
Procedure: (§2) The ten antibiotic resistant C. acnes clinical isolates were acquired from BEI resources with the two reference strains obtained from American Type Culture Collection (ATCC, Manassas, VA, USA). C. acnes is a relatively slow-growing, typically aerotolerant anaerobic so all in vitro C. acnes experiments were performed under anaerobic conditions.
(§3) Single colonies were inoculated in Reinforced Clostridium Medium (RCM) broth supplemented with sodium thioglycolate and incubated at 37 °C, with shaking at 200 rpm, for 2 or 3 days to reach logarithmic growth (OD600nm = 1.0). Each C. acnes (1 × 10^6 CFU per mL) was incubated with dAMP or clindamycin at two-fold serial dilutions (0.5–32 μg per mL) in RCM on a 96-well microplate for 48 h. Three replicas were included for each test article concentration. Bacterial growth was measured by optical density at 600 nm to determine the MIC for each dAMP applied.

C. acnes HL013PA1 = assay type: cell-based, Cutibacterium acnes; settings: C. acnes HL013PA1; RCM broth, anaerobic, 1 × 10^6 CFU per mL, two-fold dilutions 0.5–32 μg/mL, 48 h, OD 600 nm; mean of three replicates
Procedure: as §2, §3

C. acnes HL007PA1 = assay type: cell-based, Cutibacterium acnes; settings: C. acnes HL007PA1; RCM broth, anaerobic, 1 × 10^6 CFU per mL, two-fold dilutions 0.5–32 μg/mL, 48 h, OD 600 nm; mean of three replicates
Procedure: as §2, §3

[2] = test system: ten C. acnes clinical isolates and two C. acnes ATCC reference strains; assay type: cell-based, Cutibacterium acnes
Procedure: as §2, §3

C. acnes HL053PA1 = assay type: cell-based, Cutibacterium acnes; settings: C. acnes HL053PA1; RCM broth, anaerobic, 1 × 10^6 CFU per mL, two-fold dilutions 0.5–32 μg/mL, 48 h, OD 600 nm; mean of three replicates
Procedure: as §2, §3

C. acnes ATCC11827 = assay type: cell-based, Cutibacterium acnes; settings: C. acnes ATCC11827; RCM broth, anaerobic, 1 × 10^6 CFU per mL, two-fold dilutions 0.5–32 μg/mL, 48 h, OD 600 nm; mean of three replicates
Procedure: as §2, §3

C. acnes HL056PA1 = assay type: cell-based, Cutibacterium acnes; settings: C. acnes HL056PA1; RCM broth, anaerobic, 1 × 10^6 CFU per mL, two-fold dilutions 0.5–32 μg/mL, 48 h, OD 600 nm; mean of three replicates
Procedure: as §2, §3

[3] = test system: C. acnes HL043PA2 compared to human keratinocytes; assay type: cell-based
Procedure: In evaluating the clinical utility of each of the candidate dAMPs for C. acnes treatment, the Therapeutic Index was determined. The Therapeutic Index is defined as the ratio of concentration at which the dAMP is active against the prokaryotic C. acnes pathogen without inducing cytotoxic damage to the surrounding mammalian cells. The EC10 and EC50 doses, defined as the concentrations required to kill 10% and 50% respectively of human keratinocytes following 8 h incubation with each of the Riptide dAMPs, are tabulated and graphed in Table 2 and Figure 3, respectively. The larger the Therapeutic Index, the greater the specificity of the dAMP for destroying C. acnes cells.
as §3, §1

## CC[C@H](C)[C@@H]1NC(=O)CNC(=O)[C@H](CCCCN)NC(=O)[C@H](Cc2ccc(O)cc2)NC(=O)[C@@H]2CSSC[C@H](NC1=O)C(=O)N[C@@H](Cc1ccc(O)cc1)C(=O)N[C@@H](CCCCN)C(=O)N[C@@H](CCCCN)C(=O)N[C@H](C(=O)N[C@@H](CCCCN)C(N)=O)CSSC[C@H](NC(=O)[C@H](Cc1c[nH]c3ccccc13)NC(=O)[C@@H](N)CCCNC(=N)N)C(=O)N[C@@H](Cc1ccccc1)C(=O)N[C@@H](CCCCN)C(=O)N[C@@H](C(C)C)C(=O)N2 [RP556] (H-RWCFKVCYKGICYKKCK-NH2; disulfide 3-16, 7-12)
C. acnes HL043PA2; RP556 5 mg/mL (0.5%) in 2% hydroxypropyl methylcellulose
  mean bacterial burden in skin (CFU/g): below the detectable limit; also recorded: completely eliminated C. acnes infection
C. acnes HL043PA2; RP556 20 mg/mL in 2% hydroxypropyl methylcellulose
  mean bacterial burden in skin (CFU/g): below the detectable limit
C. acnes HL043PA2; 5 and 20 mg/mL, 7 applications
  clinical observations and body weight following treatment: no untoward clinical observations or changes in body weight
[1]; 8 h incubation at 256 μg/mL
  viability of human keratinocytes: greater than 80%
[1]; 1 × 10^4 cells/well, 8 h incubation, 2-fold dilutions from 1024 µg/mL, triplicate, IVIS imaging, GraphPad Prism 7
  EC10, concentration required to kill 10% of human keratinocytes: 276 µg/mL
C. acnes HL072PA1
  MIC: 8 µg/mL (≈ 3.72 µM)
C. acnes HL013PA1
  MIC: 2 µg/mL (≈ 0.929 µM)
C. acnes HL007PA1
  MIC: 4 µg/mL (≈ 1.86 µM)
[2]; 0.5–32 μg/mL concentration range evaluated
  in vitro anti-bacterial activity against the C. acnes bacterial strains (in words): most active
[2]; span over ten antibiotic resistant isolates and two ATCC reference strains
  MIC values against all C. acnes isolates: 2 to 8 µg/mL
C. acnes HL053PA1
  MIC: 4 µg/mL (≈ 1.86 µM)
C. acnes ATCC11827
  MIC: 8 µg/mL (≈ 3.72 µM)
C. acnes HL056PA1
  MIC: 2 µg/mL (≈ 0.929 µM)
[3]; keratinocyte EC10 (8 h) versus MIC against HL043PA2 C. acnes
  Therapeutic Index (EC10 / MIC): 70
[3]; keratinocyte EC50 (8 h) versus MIC against HL043PA2 C. acnes
  Therapeutic Index (EC50 / MIC): 130
